In patent US4866176A, “8-Piperazinyl-1,7-naphthyridine derivative having pharmaceutical activity” (SS Pharmaceutical Co., Ltd., priority 1986, dated 1989):

Legend:
Edema = assay: Antiinflammatory effect (carragenin-induced edema of rat foot, oral); assay type: in vivo, Wister rats; settings: 30 mg/kg, carragenin 60 min after dosing, foot volume 3 hours thereafter
Experimental: Wister rats (age 6 weeks), 5 of which consisted one group, were fasted for 18 hours and orally given a test compound which was dissolved or suspended in a 0.5% sodium carboxymethylcellulose (CMC-Na). Sixty (60) minutes after administration of the tested compound each rat was subcutaneously given 0.1 ml of 1% carragenin physiological saline at its right plantar, and 3 hours thereafter the volume of its foot (A) was measured. The rate of edematization was determined by the formula [(A-B)/B]×100, in which (A) is the thus-obtained volume of animals foot and (B) denots the corresponding volume before administration of the compound (B).
The rate of edematization of controls which were subcutaneously given 0.1 ml of 1% carragenin physiological saline at their right plantars was also determined in the same manner. The rate of edema inhibition was determined on each of the tested compounds according to the following equation: [formula]
The results are shown in Table 1, in which the compound numbers correspond those of Examples appearing hereinafter in this specification.

[1] = system: right and left atrium muscles; assay: Cardiotonic effect (positive inotropic effect on isolated guinea pig atrium muscles); parameters: species or system Hartley male guinea pigs; settings: Cavia porcellus, 10^-5 g/ml, 32° C, maximum change of contractive force, read-out: Positive Inotropic Effect (% per the value obtained on controls)
Experimental: Hearts of Hartley male guinea pigs, weighing 500-800 g, were taken out and their atrium muscles were enucleated in Krebs - hydrogencarbonate solution, to serve the same as samples for the test. The both ends of right and left atrium muscles with a spontaneous beat were fixed by means of Serres fines, and suspended, with their upper and lower portions being fixed, in a bath containing 20 ml of Krebs - hydrogencarbonate solution which was aerated by 95% O2 +5% CO2 at 32° C. Then contractive forces of the spontaneous beat were isometrically measured. After the samples were stabilized, the test compound dissolved in 1 N hydrochloric acid solution and diluted by physiological saline to a concentration of 10^-5 g/ml was charged into the bath. Maximum changes (%) of the contractive force after charging the test compound per the value obtained immediately before the charge were determined. The values obtained, which respresent a positive inotropic effect, were made a standard for the cardiotonic effect.

heart rate = assay: Antiarrhythmic effect (chloroform, mice, ip); assay type: in vivo; settings: positive = 1-200 per minute heart rate
Experimental: Mice, age 5 weeks and weighing approximately 25 g, 6 of which consisted one group, were given a test compound which was dissolved in a 0.01 N-0.1 N hydrochloric acid solution (ip). Ten (10) minutes thereafter the mice were put into a sealed container which was filled with chloroform, their chests were incised promptly after confirming the respiratory arrest, and the heart rate was counted. Those with a 1-200 per minute heart rate were judged as positive in their antiarrhythmic effect.

| Compound | Edema Inhibition Rate (%) (Edema) | activation at 10 µg/mL [1] [%] | Animals exhibited positive antiarrhythmic/Animals tested (heart rate; 12.5 mg/kg) | Animals exhibited positive antiarrhythmic/Animals tested (heart rate; 25.0 mg/kg) |
| --- | --- | --- | --- | --- |
| CC(=O)Nc1cc2cccnc2c(N2CCN(C(=O)c3ccc([N+](=O)[O-])cc3)CC2)n1 [compound 8, 6-acetamido-8-[4-(p-nitrobenzoyl)-1-piperazinyl]-1,7-naphthyridine] | 28.6 | – | – | – |
| CC(=O)Nc1cc2cccnc2c(N2CCN(C(C)=O)CC2)n1 [compound 3] | – | 35.6 | – | – |
| CC(=O)Nc1cc2cccnc2c(N2CCN(Cc3ccccc3)CC2)n1 [compound 22] | 57.1 | 16.7 | – | – |
| COc1ccc(C(=O)N2CCN(c3nc(NC(C)=O)cc4cccnc34)CC2)cc1OC [compound 10] | – | 16.7 | – | – |
| CC(=O)Nc1cc2cccnc2c(N2CCN(c3cccc(Cl)c3)CC2)n1 [compound 15] | – | – | 4/6 | 4/6 |
| COc1cc(C(=O)N2CCN(c3nc(NC(C)=O)cc4cccnc34)CC2)cc(OC)c1OC [compound 11] | – | – | 1/6 | 6/6 |
| CC(=O)Nc1cc2cccnc2c(N2CCN(C=O)CC2)n1 [compound 2] | 35.0 | 35.8 | – | – |
| CC(=O)Nc1cc2cccnc2c(N2CCN(C(=O)c3ccccc3)CC2)n1 [compound 4] | – | – | 2/6 | 4/6 |
| CC(=O)Nc1cc2cccnc2c(N2CCN(c3ccc(F)cc3)CC2)n1 [compound 17] | – | – | 3/6 | 5/6 |
| CC(=O)Nc1cc2cccnc2c(N2CCNCC2)n1 [Compound No. 1, 6-acetamido-8-(1-piperazinyl)-1,7-naphthyridine] | 64.8 | – | 5/6 | 4/6 |
| COc1ccc(C(=O)N2CCN(c3nc(NC(C)=O)cc4cccnc34)CC2)cc1 [compound 9] | 30.4 | – | – | – |
